Source: patent US10206394B2, “Herbicidal compounds” (Syngenta Participations AG, priority 2014, dated 2019)
Read-outs that look alike come from different tables or passages of the source.

How the values were obtained:
Assay in all cases: Glasshouse assay for herbicidal activity (pre- and post-emergence), percentage phytotoxicity
Type in all cases: in vivo
[1] = tested on: Alopecurus myosuroides (ALOMY); details: Alopecurus myosuroides
Summary of the method: (§1)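 Visually rated damage, 0–100%. PRE spray 1 d after sowing, scored 20 DAA; POST spray ~12 d, scored 15 DAA. Glasshouse at 65% humidity, 16 h day.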

[2] = tested on: Avena fatua (AVEFA); details: Avena fatua
Summary of the method: as §1

[3] = tested on: Echinochloa crus-galli (ECHCG); details: Echinochloa crus-galli
Summary of the method: as §1

[4] = tested on: Lolium perenne (LOLPE); details: Lolium perenne
Summary of the method: as §1

[5] = post-emergence, 360 h, Rate 250 g/ha, post-emergence, visual assessment 15 DAA, 100%=total damage, 0%=no damage, read-out: Post-emergence herbicidal activity (percentage phytotoxicity) ALOMY POST
[6] = pre-emergence, 480 h, Rate 250 g/ha, pre-emergence, visual assessment 20 DAA, 100%=total damage, 0%=no damage, read-out: Pre-emergence herbicidal activity (percentage phytotoxicity) ALOMY PRE
[7] = post-emergence, 360 h, Rate 250 g/ha, post-emergence, visual assessment 15 DAA, 100%=total damage, 0%=no damage, read-out: Post-emergence herbicidal activity (percentage phytotoxicity) AVEFA POST
[8] = pre-emergence, 480 h, Rate 250 g/ha, pre-emergence, visual assessment 20 DAA, 100%=total damage, 0%=no damage, read-out: Pre-emergence herbicidal activity (percentage phytotoxicity) AVEFA PRE
[9] = post-emergence, 360 h, Rate 250 g/ha, post-emergence, visual assessment 15 DAA, 100%=total damage, 0%=no damage, read-out: Post-emergence herbicidal activity (percentage phytotoxicity) ECHCG POST
[10] = pre-emergence, 480 h, Rate 250 g/ha, pre-emergence, visual assessment 20 DAA, 100%=total damage, 0%=no damage, read-out: Pre-emergence herbicidal activity (percentage phytotoxicity) ECHCG PRE
[11] = post-emergence, 360 h, Rate 250 g/ha, post-emergence, visual assessment 15 DAA, 100%=total damage, 0%=no damage, read-out: Post-emergence herbicidal activity (percentage phytotoxicity) LOLPE POST
[12] = pre-emergence, 480 h, Rate 250 g/ha, pre-emergence, visual assessment 20 DAA, 100%=total damage, 0%=no damage, read-out: Pre-emergence herbicidal activity (percentage phytotoxicity) LOLPE PRE
[13] = post-emergence, 360 h, POST-emergence, rate 250 g/ha, visual score 15 DAA (100%=total damage, 0%=no damage), read-out: Post-emergence herbicidal activity (percentage phytotoxicity) ALOMY POST
[14] = pre-emergence, 480 h, PRE-emergence, rate 250 g/ha, visual score 20 DAA (100%=total damage, 0%=no damage), read-out: Pre-emergence herbicidal activity (percentage phytotoxicity) ALOMY PRE
[15] = post-emergence, 360 h, POST-emergence, rate 250 g/ha, visual score 15 DAA (100%=total damage, 0%=no damage), read-out: Post-emergence herbicidal activity (percentage phytotoxicity) AVEFA POST
[16] = pre-emergence, 480 h, PRE-emergence, rate 250 g/ha, visual score 20 DAA (100%=total damage, 0%=no damage), read-out: Pre-emergence herbicidal activity (percentage phytotoxicity) AVEFA PRE
[17] = post-emergence, 360 h, POST-emergence, rate 250 g/ha, visual score 15 DAA (100%=total damage, 0%=no damage), read-out: Post-emergence herbicidal activity (percentage phytotoxicity) ECHCG POST
[18] = pre-emergence, 480 h, PRE-emergence, rate 250 g/ha, visual score 20 DAA (100%=total damage, 0%=no damage), read-out: Pre-emergence herbicidal activity (percentage phytotoxicity) ECHCG PRE
[19] = post-emergence, 360 h, POST-emergence, rate 250 g/ha, visual score 15 DAA (100%=total damage, 0%=no damage), read-out: Post-emergence herbicidal activity (percentage phytotoxicity) LOLPE POST
[20] = pre-emergence, 480 h, PRE-emergence, rate 250 g/ha, visual score 20 DAA (100%=total damage, 0%=no damage), read-out: Pre-emergence herbicidal activity (percentage phytotoxicity) LOLPE PRE
[21] = post-emergence, 360 h, 250 g/ha, post-emergence, 15 DAA, visual assessment (100%=total damage, 0%=no damage), read-out: Post-emergence herbicidal activity (percentage phytotoxicity) ALOMY POST
[22] = pre-emergence, 480 h, 250 g/ha, pre-emergence, 20 DAA, visual assessment (100%=total damage, 0%=no damage), read-out: Pre-emergence herbicidal activity (percentage phytotoxicity) ALOMY PRE
[23] = post-emergence, 360 h, 250 g/ha, post-emergence, 15 DAA, visual assessment (100%=total damage, 0%=no damage), read-out: Post-emergence herbicidal activity (percentage phytotoxicity) AVEFA POST
[24] = pre-emergence, 480 h, 250 g/ha, pre-emergence, 20 DAA, visual assessment (100%=total damage, 0%=no damage), read-out: Pre-emergence herbicidal activity (percentage phytotoxicity) AVEFA PRE
[25] = post-emergence, 360 h, 250 g/ha, post-emergence, 15 DAA, visual assessment (100%=total damage, 0%=no damage), read-out: Post-emergence herbicidal activity (percentage phytotoxicity) ECHCG POST
[26] = pre-emergence, 480 h, 250 g/ha, pre-emergence, 20 DAA, visual assessment (100%=total damage, 0%=no damage), read-out: Pre-emergence herbicidal activity (percentage phytotoxicity) ECHCG PRE
[27] = post-emergence, 360 h, 250 g/ha, post-emergence, 15 DAA, visual assessment (100%=total damage, 0%=no damage), read-out: Post-emergence herbicidal activity (percentage phytotoxicity) LOLPE POST
[28] = pre-emergence, 480 h, 250 g/ha, pre-emergence, 20 DAA, visual assessment (100%=total damage, 0%=no damage), read-out: Pre-emergence herbicidal activity (percentage phytotoxicity) LOLPE PRE

SMILES | pest or weed control at 250 g/ha [1, 5] | pest or weed control at 250 g/ha [1, 6] | pest or weed control at 250 g/ha [2, 7] | pest or weed control at 250 g/ha [2, 8] | pest or weed control at 250 g/ha [3, 9] | pest or weed control at 250 g/ha [3, 10] | pest or weed control at 250 g/ha [4, 11] | pest or weed control at 250 g/ha [4, 12] | pest or weed control at 250 g/ha [1, 13] | pest or weed control at 250 g/ha [1, 14] | pest or weed control at 250 g/ha [2, 15] | pest or weed control at 250 g/ha [2, 16] | pest or weed control at 250 g/ha [3, 17] | pest or weed control at 250 g/ha [3, 18] | pest or weed control at 250 g/ha [4, 19] | pest or weed control at 250 g/ha [4, 20] | also measured
Cc1cc(-c2ncc(F)cn2)cc(C)c1C1C(=O)CC(CC(=O)NCC(C)(C)C)C1=O (centres unmarked) [Compound B109] | – | – | – | – | – | – | – | – | – | – | – | – | – | – | – | – | pest or weed control at 63 g/ha ([1]; post-emergence, 360 h, post-emergence, 15 DAA, read-out: Post-emergence herbicidal activity (percentage phytotoxicity) ALOMY POST): 20%; pest or weed control at 63 g/ha ([1]; pre-emergence, 480 h, pre-emergence, 20 DAA, read-out: Pre-emergence herbicidal activity (percentage phytotoxicity) ALOMY PRE): 70%; pest or weed control at 63 g/ha ([2]; post-emergence, 360 h, post-emergence, 15 DAA, read-out: Post-emergence herbicidal activity (percentage phytotoxicity) AVEFA POST): 80%; pest or weed control at 63 g/ha ([2]; pre-emergence, 480 h, pre-emergence, 20 DAA, read-out: Pre-emergence herbicidal activity (percentage phytotoxicity) AVEFA PRE): 100%; pest or weed control at 63 g/ha ([3]; post-emergence, 360 h, post-emergence, 15 DAA, read-out: Post-emergence herbicidal activity (percentage phytotoxicity) ECHCG POST): 90%; pest or weed control at 63 g/ha ([3]; pre-emergence, 480 h, pre-emergence, 20 DAA, read-out: Pre-emergence herbicidal activity (percentage phytotoxicity) ECHCG PRE): 80%; pest or weed control at 63 g/ha ([4]; post-emergence, 360 h, post-emergence, 15 DAA, read-out: Post-emergence herbicidal activity (percentage phytotoxicity) LOLPE POST): 70%; pest or weed control at 63 g/ha ([4]; pre-emergence, 480 h, pre-emergence, 20 DAA, read-out: Pre-emergence herbicidal activity (percentage phytotoxicity) LOLPE PRE): 60%
Cc1cc(-c2ccc(Cl)cn2)cc(C)c1C1C(=O)CC(CC(=O)NC/C=C/Cl)C1=O (centres unmarked) [Compound B372] | 90% | 90% | 100% | 100% | 100% | 100% | 90% | 100% | – | – | – | – | – | – | – | – | –
CCc1cc(OCC(F)(F)F)cc(C)c1C1C(=O)CC(CC(=O)NC(C)(C)C)C1=O (centres unmarked) [Compound B165] | – | – | – | – | – | – | – | – | 100% | 100% | 100% | 100% | 100% | 100% | 100% | 100% | –
COCC(C)NC(=O)CC1CC(=O)C(c2c(C)cc(-c3ccc(Cl)cn3)cc2C)C1=O (centres unmarked) [Compound B366] | 90% | 100% | 100% | 100% | 100% | 100% | 90% | 100% | – | – | – | – | – | – | – | – | –
C#CC(C)(C)NC(=O)CC1CC(=O)C(c2c(C)cc(-c3ncc(F)cn3)cc2C)C1=O (centres unmarked) [Compound B113] | – | – | – | – | – | – | – | – | – | – | – | – | – | – | – | – | pest or weed control at 250 g/ha [1, 21]: 100%; pest or weed control at 250 g/ha [1, 22]: 90%; pest or weed control at 250 g/ha [2, 23]: 100%; pest or weed control at 250 g/ha [2, 24]: 90%; pest or weed control at 250 g/ha [3, 25]: 100%; pest or weed control at 250 g/ha [3, 26]: 100%; pest or weed control at 250 g/ha [4, 27]: 100%; pest or weed control at 250 g/ha [4, 28]: 90%
C=C(C)CNC(=O)CC1CC(=O)C(c2c(C)cc(C)cc2C)C1=O (centres unmarked) [Compound B44] | – | – | – | – | – | – | – | – | – | – | – | – | – | – | – | – | pest or weed control at 250 g/ha [1, 21]: 90%; pest or weed control at 250 g/ha [1, 22]: 90%; pest or weed control at 250 g/ha [2, 23]: 90%; pest or weed control at 250 g/ha [2, 24]: 60%; pest or weed control at 250 g/ha [3, 25]: 90%; pest or weed control at 250 g/ha [3, 26]: 90%; pest or weed control at 250 g/ha [4, 27]: 90%; pest or weed control at 250 g/ha [4, 28]: 100%
COCC(C)NC(=O)CC1CC(=O)C(c2c(C)cc(-c3ncc(F)cn3)cc2C)C1=O (centres unmarked) [Compound B332] | – | – | – | – | – | – | – | – | 100% | 100% | 100% | 100% | 100% | 100% | 100% | 100% | –
Cc1cc(-c2ccc(F)cn2)cc(C)c1C1C(=O)CC(CC(=O)NCC2CC2)C1=O (centres unmarked) [Compound B386] | 100% | 100% | 100% | 100% | 40% | 100% | 90% | 100% | – | – | – | – | – | – | – | – | –
CCc1cc(-n2cc(Cl)cn2)cc(C)c1C1C(=O)CC(CC(=O)NC(C)C)C1=O (centres unmarked) [Compound B235] | – | – | – | – | – | – | – | – | 100% | 100% | 100% | 100% | 100% | 100% | 100% | 100% | –
Cc1cc(-c2ncc(Cl)cc2F)cc(C)c1C1C(=O)CC(CC(=O)NCc2ccccc2F)C1=O (centres unmarked) [Compound A118] | – | – | – | – | – | – | – | – | – | – | – | – | – | – | – | – | pest or weed control at 250 g/ha ([1]; post-emergence, 360 h, Rate 250 g/ha, post-emergence, assessed visually 15 DAA, 100%=total damage, 0%=no damage, read-out: Post-emergence herbicidal activity (percentage phytotoxicity) ALOMY POST): 90%; pest or weed control at 250 g/ha ([1]; pre-emergence, 480 h, Rate 250 g/ha, pre-emergence, assessed visually 20 DAA, 100%=total damage, 0%=no damage, read-out: Pre-emergence herbicidal activity (percentage phytotoxicity) ALOMY PRE): 80%; pest or weed control at 250 g/ha ([2]; post-emergence, 360 h, Rate 250 g/ha, post-emergence, assessed visually 15 DAA, 100%=total damage, 0%=no damage, read-out: Post-emergence herbicidal activity (percentage phytotoxicity) AVEFA POST): 100%; pest or weed control at 250 g/ha ([2]; pre-emergence, 480 h, Rate 250 g/ha, pre-emergence, assessed visually 20 DAA, 100%=total damage, 0%=no damage, read-out: Pre-emergence herbicidal activity (percentage phytotoxicity) AVEFA PRE): 100%; pest or weed control at 250 g/ha ([3]; post-emergence, 360 h, Rate 250 g/ha, post-emergence, assessed visually 15 DAA, 100%=total damage, 0%=no damage, read-out: Post-emergence herbicidal activity (percentage phytotoxicity) ECHCG POST): 100%; pest or weed control at 250 g/ha ([3]; pre-emergence, 480 h, Rate 250 g/ha, pre-emergence, assessed visually 20 DAA, 100%=total damage, 0%=no damage, read-out: Pre-emergence herbicidal activity (percentage phytotoxicity) ECHCG PRE): 100%; pest or weed control at 250 g/ha ([4]; post-emergence, 360 h, Rate 250 g/ha, post-emergence, assessed visually 15 DAA, 100%=total damage, 0%=no damage, read-out: Post-emergence herbicidal activity (percentage phytotoxicity) LOLPE POST): 100%; pest or weed control at 250 g/ha ([4]; pre-emergence, 480 h, Rate 250 g/ha, pre-emergence, assessed visually 20 DAA, 100%=total damage, 0%=no damage, read-out: Pre-emergence herbicidal activity (percentage phytotoxicity) LOLPE PRE): 90%
